Format in all cases: in vivo, NMRI-Foxn1^nu mice
In assay [1] the test system is HER2 Exon20^YVMA-mutant human non-small cell lung cancer (NSCLC) cell line PC-9_YVMA-5. The assay can be described thus: PC-9_YVMA-5 subcutaneous xenograft, zongertinib with T-DM1. To be noted: alone or combined; for effect on tumor growth (median tumor volumes over time): T-DM1 5 mg/kg once weekly (q7d), zongertinib 5 mg/kg/day; for TGI: day 19; for TGI / tumors regressed completely / Regressions >30%: zongertinib 5 mg/kg bid, T-DM1 5 mg/kg q7d; for tumors regressed completely: number of tumors, 8 per group; for Regressions >30%: tumors regressed/total (Table 6, FIG. 6 waterfall day 24). The protocol: The study is performed in human non-small cell lung cancer (NSCLC) cell line PC-9_YVMA-5 (PC-9 YVMA in short) grown as subcutaneous xenografts in NMRI-Foxn1^nu mice. Day 1 was the first day, day 21 the last day of treatment and day 24 the final day of analysis.
PC-9 is a non-small cell lung cancer cell line that can be obtained from the European Collection of Authenticated Cell Cultures (ECACC #90071810) and expresses an EGFR DEL19 mutation. To generate the PC-9_YVMA-5 clone driven by HER2 YVMA, parental PC-9 cells are ectopically transduced to express the HER2 YVMA isoform and the EGFR alleles (mutant and wild type) are deleted using CRISPR technology. Cells are cultured in T175 tissue culture flasks at 37° C. and 5% CO2. The medium used is RPMI 1640 supplemented with 10% FCS (Thermo Scientific #SH 30071.03), 0.5 μg/ml Puromycin (Gibco #A1113803) and 0.6 mg/ml Geneticin (Gibco #10131035). Cultures are split twice weekly with a ratio of 1:5-1:6.
To establish subcutaneous tumors, PC-9_YVMA-5 cells are harvested by centrifugation, washed and resuspended in PBS+5% FCS at 5×10^7 cells/ml. 100 μl cell suspension containing 5×10^6 cells is injected subcutaneously into the right flank of the mice (1 site per mouse). Mice are randomly distributed between the treatment and the vehicle control group (12 days after cell injection) when tumors are well established and have reached volumes of 90 to 149 mm^3.
Mice in the control group are treated with vehicle, i.e.: • (i) 0.5% Natrosol, administered twice daily for the duration of the treatment intragastrally by gavage needle with a volume of 10 ml/kg body weight; and • (ii) saline (0.9%), administered once weekly intravenously into the tail vein with a volume of 5 ml/kg.
Tumor volumes and side effects are monitored as described in Example 1 (see paragraph 1.1.6), except that control animals are sacrificed when the median tumor volume of the group reaches a size of approximately 370 mm^3.
The statistical evaluation of the tumor volume and the body weight is conducted on day 19 (last day of the controls). Apart from this, statistical analysis was performed as described in Example 1 (see paragraph 1.1.7), with no evaluation of tumor growth after stop of treatment.

Assay [2] has as its system HER2-overexpressing human breast cancer cell line SUM190PT. The assay can be described thus: SUM190PT subcutaneous xenograft, zongertinib with T-DM1. To be noted: day 21, alone or combined; for stable disease: number of tumors out of 8, zongertinib 20 mg/kg qdx21, T-DM1 3 mg/kg q21dx1; for Regressions >30%: tumors regressed/total (partial response); for Regressions >30% / TGI: zongertinib 20 mg/kg qdx21 p.o., T-DM1 3 mg/kg q21dx1 i.v. The protocol:
The study is performed in human breast cancer cell line SUM190PT grown as subcutaneous xenografts in NMRI-Foxn1^nu mice. Day 1 was the first day, day 21 the last day of treatment and final day of analysis.
SUM190PT is a HER2-overexpressing human breast cancer cell line that can be obtained from Asterand Bioscience (BioIVT). Cells are cultured in T75, T175 and 5-Layer tissue culture flasks at 37° C. and 5% CO2. The medium used is ACL-4 (Thermo Fisher Scientific #041-95574M Custom Batch) supplemented with 0.5% bovine serum albumin (JHR 85-041-025), 0.02 mg/ml insulin (Sigma I5500), 0.01 mg/ml transferrin (Sigma T-2252), 25 nM sodium selenite (Sigma S9133), 50 nM Hydrocortisone (Sigma H-4001), 1 ng/ml Epidermal Growth Factor (unfiltered, Sigma E4127), 0.01 mM ethanolamine (Sigma E-0135), 0.01 mM phosphorylethanolamine (Medchem HY-N5034), 100 pM triiodothyronine (Sigma T5516), 0.5 mM sodium pyruvate (Sigma S8636) and 2 mM L-glutamine (Gibco 11539876). Cultures are split once weekly with a ratio of 1:2.
To establish subcutaneous tumors, SUM190PT cells are harvested by centrifugation, washed and resuspended in PBS+2.5% FCS+50% Matrigel (Corning #2165001) at 5×10^7 cells/ml. 100 μl cell suspension containing 5×10^6 cells is injected subcutaneously into the right flank of the mice (1 site per mouse). Mice are randomly distributed between the treatment and the vehicle control group (13 days after cell injection) when tumors are well established and have reached volumes of 100 to 180 mm^3.
Tumor volumes and side effects are monitored as described in Example 1 (see paragraph 1.1.6), except that control animals were analysed when the median tumor volume of the group reaches a size of approximately 700 mm^3.
(§1) The statistical evaluation of the tumor volume and the body weight is conducted on day 21 (last day of the study). Apart from this, statistical analysis was performed as described in Example 1 (see paragraph 1.1.7), with no evaluation of tumor growth after stop of treatment.

Assay [3] has as its system HER2-overexpressing human NSCLC cell line NCI-H2170. The assay can be described thus: NCI-H2170 subcutaneous xenograft, zongertinib with T-DXd. To be noted: day 21, alone or combined; for Regressions >30%: tumors regressed/total (partial response). How it is done:
The study is performed in human NSCLC cell line NCI-H2170 grown as subcutaneous xenografts in NMRI-Foxn1^nu mice. Day 1 was the first day, day 21 the last day of treatment and final day of analysis.
NCI-H2170 is a HER2-overexpressing NSCLC cell line that can be obtained from the American Type Culture Collection (ATCC #CRL-5928; original vial lot: 4419196). Cells are cultured in T175 tissue culture flasks at 37° C. and 5% CO2. The medium used is RPMI 1640 (ATCC #30-2001) supplemented with 10% fetal bovine serum (FBS) (Gibco #26140079). Cultures are split twice weekly with a ratio of 1:3-1:9.
To establish subcutaneous tumors, NCI-H2170 cells are harvested by centrifugation, washed and resuspended in PBS+5% FCS at 1×10^7 cells/ml. 100 μl cell suspension containing 1×10^6 cells are injected subcutaneously into the right flank of the mice (1 site per mouse).
Tumor volumes and side effects are monitored as described in Example 1 (see paragraph 1.1.6), except that control animals are sacrificed when the median tumor volume of the group reaches a size of approximately 1000 mm^3.
as §1

[4] abbreviates: zongertinib 20 mg/kg qdx21 p.o., T-DXd 3 mg/kg q21dx1 i.v.

Results on 2 compounds are retold here after patent US20250228858A1, “ANTI-CANCER COMBINATION THERAPY” (Boehringer Ingelheim International GmbH, priority 2023, published 2025).

Where “and” joins values, the source holds several entries; their conditions need not be identical. Equal values may be shown once.

Consider `C=CC(=O)NC1CCN(c2ncc3ncnc(Nc4ccc(Oc5ccc6c(c5)ncn6C)c(C)c4)c3n2)CC1` [Zongertinib, N-{1-[8-({3-methyl-4-[(1-methyl-1H-1,3-benzodiazol-5-yl)oxy]phenyl}amino)-[1,3]diazino [5,4-d]pyrimidin-2-yl]piperidin-4-yl}prop-2-enamide], for which the “effect on tumor growth (median tumor volumes over time)” value in assay [1] is given as “abolished tumor growth”. Moreover, the values for the TGI in assay [1], in assay [2] and in assay [3] (setting [4]) were 110%, 64% and 89%, respectively. Further, the tumors regressed completely entry in assay [1] was “none”. In addition, the “Regressions >30%” value in assay [1] was 4/8; in assay [1] (listed as zongertinib), 4; in assay [2], 0/8; in assay [3] (setting [4]), 0/8; in assay [3] (zongertinib 20 mg/kg qdx21 p.o., T-DXd 3 mg/kg q21dx1 i.v., listed as zongertinib), “no partial responses”. Besides, the stable disease result in assay [2] is on record as “no stable disease”; in assay [3] (number of tumors out of 8, zongertinib 20 mg/kg qdx21, T-DXd 3 mg/kg q21dx1) it was 1.
As to “trastuzumab emtansine [T-DM1, reference compound]”, in assay [1], the “effect on tumor growth (median tumor volumes over time)” value is recorded as “abolished tumor growth”; the TGI came out at 112%; the tumors regressed completely entry was “none”; the “Regressions >30%” value is 4 and 4/8. Also, in assay [2], the stable disease is listed as 3, the “Regressions >30%” value is given as 0/8 and the TGI is listed as 90%.
